Measured values as given in US9765037B2, “Compositions and methods for treating toxoplasmosis, cryptosporidiosis, and other apicomplexan protozoan related diseases” (University of Washington Through its Center for …, priority 2010, dated 2017).
In brackets after ≈: the same amount, converted by molar mass. Where two headings read alike, the source gives them in different places.

How the values were obtained:
PfCDPK4 = PfCDPK4 (Plasmodium falciparum (isolate 3D7), UniProt Q8IBS5); experiment: biochemical
[1] = system: colorectal carcinoma (HC 2998); experiment: Growth inhibition of human cell line HC 2998
PfCDPK1 = PfCDPK1 (Plasmodium falciparum (isolate 3D7), UniProt P62344); experiment: biochemical
[2] = system: human promyelocytic leukemia (HL-60); experiment: Growth inhibition of human cell line HL-60
[3] = system: human lymphocyte (CRL8155); experiment: Growth inhibition of human cell line CRL8155
glioma derived (SF539) = experiment: Growth inhibition of human cell line SF539
[4] = Solubility in buffers of various pH; assay type: physicochemical; conditions: buffer
HckKD = HckKD (Homo sapiens (Human), UniProt P08631); experiment: Tyrosine kinase IC50, HckKD; assay type: biochemical; conditions: Table 9
HckKD, sequence (P08631 262-515): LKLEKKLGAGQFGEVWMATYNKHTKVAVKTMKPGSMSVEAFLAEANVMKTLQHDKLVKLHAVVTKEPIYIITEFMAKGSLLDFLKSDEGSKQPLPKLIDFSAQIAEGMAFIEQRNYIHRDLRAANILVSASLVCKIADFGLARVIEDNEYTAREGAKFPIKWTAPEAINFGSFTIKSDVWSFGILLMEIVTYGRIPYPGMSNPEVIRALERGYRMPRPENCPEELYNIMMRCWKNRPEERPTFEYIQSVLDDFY

TgCDPK1 = TgCDPK1 (Toxoplasma gondii, UniProt Q9BJF5); assay type: biochemical
TgCDPK1, sequence (Q9BJF5 1-507): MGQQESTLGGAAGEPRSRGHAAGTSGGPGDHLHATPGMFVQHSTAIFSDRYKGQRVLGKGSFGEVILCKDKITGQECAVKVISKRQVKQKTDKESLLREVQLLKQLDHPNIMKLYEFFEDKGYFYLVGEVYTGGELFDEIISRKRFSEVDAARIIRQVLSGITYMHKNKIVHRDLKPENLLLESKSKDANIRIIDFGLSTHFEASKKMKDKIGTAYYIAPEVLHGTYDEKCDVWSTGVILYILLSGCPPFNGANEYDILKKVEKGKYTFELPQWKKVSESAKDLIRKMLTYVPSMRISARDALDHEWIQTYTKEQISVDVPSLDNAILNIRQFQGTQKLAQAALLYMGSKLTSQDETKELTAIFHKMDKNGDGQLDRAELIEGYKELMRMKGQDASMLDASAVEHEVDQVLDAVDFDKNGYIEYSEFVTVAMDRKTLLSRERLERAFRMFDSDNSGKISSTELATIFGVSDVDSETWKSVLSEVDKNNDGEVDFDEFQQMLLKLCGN

CpCDPK1 = CpCDPK1 (Cryptosporidium parvum (strain Iowa II), UniProt A3FQ16); experiment: biochemical; assay type: biochemical
CpCDPK1, sequence (A3FQ16 1-538): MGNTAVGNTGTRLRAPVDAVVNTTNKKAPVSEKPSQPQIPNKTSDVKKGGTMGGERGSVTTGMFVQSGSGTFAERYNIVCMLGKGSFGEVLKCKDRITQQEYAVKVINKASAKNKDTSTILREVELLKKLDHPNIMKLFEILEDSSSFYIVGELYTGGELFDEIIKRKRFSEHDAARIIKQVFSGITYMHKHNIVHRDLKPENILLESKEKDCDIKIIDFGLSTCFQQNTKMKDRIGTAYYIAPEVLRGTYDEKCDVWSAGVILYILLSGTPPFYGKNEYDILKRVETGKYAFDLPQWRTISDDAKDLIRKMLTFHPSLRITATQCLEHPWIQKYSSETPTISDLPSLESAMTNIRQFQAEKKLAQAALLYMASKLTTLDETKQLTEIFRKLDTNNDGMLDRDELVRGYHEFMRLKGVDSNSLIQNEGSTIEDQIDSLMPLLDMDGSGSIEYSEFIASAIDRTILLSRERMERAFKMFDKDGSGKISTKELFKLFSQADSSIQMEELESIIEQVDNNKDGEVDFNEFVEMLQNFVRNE

[5] = Blood levels after oral gavage dosing of mice (LC-MS); conditions: mouse, in vivo, po
human fibroblast = experiment: Human fibroblast replication / cytotoxicity (Alamar blue); assay type: cell-based
[6] = pH 6.5, aqueous buffer, read-out: Experimental Solubility pH 6.5
[7] = Table 8, read-out: IC50 (μM) CpCDPK1

| SMILES | EC50 (PfCDPK4) | EC50 (PfCDPK1) | solubility [4, 6] | Cell Toxicity HCC2998, % at 10 μM [1] | Cell Toxicity HL60, % at 10 μM [2] | Cell Toxicity CRL8155, % at 10 μM [3] | Cell Toxicity SF539, % at 10 μM (glioma derived (SF539)) | also measured |
| --- | --- | --- | --- | --- | --- | --- | --- | --- |
| CC(C)(C)n1nc(-c2ccc3ccccc3c2)c2c(N)ncnc21 [Compound 2, 1-tert-butyl-3-(naphthalen-2-yl)-1H-pyrazolo[3,4-d]pyrimidin-4-amine] | 480 nM | 1250 nM | 2.4 µM (≈ 0.762 µg/mL) |  |  |  |  | Cell Toxicity HCC2998, % at 25 μM [1]: <30% at 25 μM; Cell Toxicity HL60, % at 25 μM [2]: <30% at 25 μM;; Cell Toxicity HL60, % at 30 μM [2]: <30% at 30 μM; Cell Toxicity CRL8155, % at 25 μM [3]: 37% at 25 μM;; Cell Toxicity CRL8155, % at 30 μM [3]: <30% at 30 μM; Cell Toxicity SF539, % at 25 μM (glioma derived (SF539)): <30% at 25 μM; solubility ([4]; aqueous buffer, pH 2.0, read-out: Experimental Solubility pH 2.0): 43 µM (≈ 13.6 µg/mL); solubility ([4]; pH 7.4, aqueous buffer, read-out: Experimental Solubility pH 7.4): 1.5 µM (≈ 0.476 µg/mL) |
| CC(C)n1nc(Cc2cccc3ccccc23)c2c(N)ncnc21 [Compound 3, 1-isopropyl-3-(naphthalen-1-ylmethyl)-1H-pyrazolo[3,4-d]pyrimidin-4-amine] |  |  |  | <30% at 10 μM | <30% at 10 μM | <30% at 10 μM | <30% at 10 μM | IC50 (HckKD): 1.38 µM |
| Nc1ncnc2c1c(Cc1cccc3ccccc13)nn2C1CCNCC1 [Compound 5g, 3-(naphthalen-1-ylmethyl)-1-(piperidin-4-yl)-1H-pyrazolo[3,4-d]pyrimidin-4-amine] |  |  |  | <30% at 10 μM | <30% at 10 μM | <30% at 10 μM | <30% at 10 μM | IC50 (TgCDPK1; read-out: TgCDPK1 IC50): 0.059 µM; IC50 (CpCDPK1; read-out: IC50 (μM) CpCDPK1): 0.056 µM |
| Nc1ncnc2c1c(Cc1cccc3ccccc13)nn2CCC1CCNCC1 [Compound 5i, 3-(naphthalen-1-ylmethyl)-1-(2-(piperidin-4-yl)ethyl)-1H-pyrazolo[3,4-d]pyrimidin-4-amine] | 603 nM |  |  | <30% at 10 μM | <30% at 10 μM; | <30% at 10 μM; | <30% at 10 μM | IC50 (TgCDPK1; read-out: TgCDPK1 IC50): 0.052 µM; IC50 (CpCDPK1; read-out: CpCDPK1 IC50): 0.034 µM; Cell Toxicity HL60, % at 30 μM [2]: <30% at 30 μM; Cell Toxicity CRL8155, % at 30 μM [3]: <30% at 30 μM |
| CCN1CCC(Cn2nc(Cc3cccc4ccccc34)c3c(N)ncnc32)CC1 [Compound 5n, 1-((1-ethylpiperidin-4-yl)methyl)-3-(naphthalen-1-ylmethyl)-1H-pyrazolo[3,4-d]pyrimidin-4-amine] |  |  |  | <30% at 10 μM | <30% at 10 μM | <30% at 10 μM | <30% at 10 μM |  |
| CS(=O)(=O)N1CCC(n2nc(Cc3cccc4ccccc34)c3c(N)ncnc32)CC1 [Compound 5p, 1-(1-(methylsulfonyl)piperidin-4-yl)-3-(naphthalen-1-ylmethyl)-1H-pyrazolo[3,4-d]pyrimidin-4-amine] |  |  |  |  |  |  |  | Cell Toxicity HCC2998, % at 25 μM [1]: <30% at 25 μM; Cell Toxicity HL60, % at 25 μM [2]: <30% at 25 μM; Cell Toxicity CRL8155, % at 25 μM [3]: <30% at 25 μM; Cell Toxicity SF539, % at 25 μM (glioma derived (SF539)): <30% at 25 μM |
| CC(C)n1nc(-c2ccc(Cl)cc2)c2c(N)ncnc21 [Compound 7a, 3-(4-chlorophenyl)-1-isopropyl-1H-pyrazolo[3,4-d]pyrimidin-4-amine] |  |  | 45 µM (≈ 12.9 µg/mL) |  |  |  |  | IC50 (TgCDPK1; read-out: IC50 (μM) TgCDPK1): 0.018 µM; IC50 (CpCDPK1; [7]): 0.216 µM; IC50 (CpCDPK1; read-out: CpCDPK1 IC50): 0.22 µM |
| CC(C)n1nc(-c2ccc(Cl)c(Cl)c2)c2c(N)ncnc21 [Compound 7c, 3-(3,4-dichlorophenyl)-1-isopropyl-1H-pyrazolo[3,4-d]pyrimidin-4-amine] |  |  |  |  |  |  |  | Cell Toxicity HCC2998, % at 25 μM [1]: <30% at 25 μM; Cell Toxicity HL60, % at 25 μM [2]: 51% at 25 μM; Cell Toxicity CRL8155, % at 25 μM [3]: 54% at 25 μM; Cell Toxicity SF539, % at 25 μM (glioma derived (SF539)): 31% at 25 μM |
| CC(C)n1nc(-c2ccc3ccccc3c2)c2c(N)ncnc21 [Compound 7p, 1-isopropyl-3-(naphthalen-2-yl)-1H-pyrazolo[3,4-d]pyrimidin-4-amine] | 142 nM | 380 nM |  |  | 35% at 10 μM |  | 54% at 10 μM | Cell Toxicity HCC2998, % at 25 μM [1]: <30% at 25 μM; GI50 ([1]; read-out: GI50 (μM) HCC2998, human cell line HCC2998): ~10 µM; Cell Toxicity HL60, % at 25 μM [2]: 50% at 25 μM;; GI50 ([2]; read-out: GI50 (μM) HL60, human cell line HL60): > 10 µM; Cell Toxicity CRL8155, % at 25 μM [3]: 46% at 25 μM; GI50 ([3]; read-out: GI50 (μM) CRL8155, human cell line CRL8155): > 10 µM; Cell Toxicity SF539, % at 25 μM (glioma derived (SF539)): 84% at 25 μM;; GI50 (glioma derived (SF539); read-out: GI50 (μM) SF539, human cell line SF539): > 10 µM |
| CCOc1ccc2cc(-c3nn(C(C)C)c4ncnc(N)c34)ccc2c1 [Compound 7r, 3-(6-ethoxynaphthalen-2-yl)-1-isopropyl-1H-pyrazolo[3,4-d]pyrimidin-4-amine] | 429 nM | 1290 nM | 12 µM (≈ 4.17 µg/mL) | <30% at 10 μM | <30% at 10 μM | <30% at 10 μM | <30% at 10 μM | IC50 (CpCDPK1; read-out: CpCDPK1 IC50): 0.012 µM; IC50 (HckKD): 0.218 µM |
| CC(C)n1nc(-c2cnc3ccccc3c2)c2c(N)ncnc21 [Compound 7t, 1-isopropyl-3-(quinolin-3-yl)-1H-pyrazolo[3,4-d]pyrimidin-4-amine] | 169 nM | 1360 nM |  | <30% at 10 μM | <30% at 10 μM | <30% at 10 μM | <30% at 10 μM |  |
| CCOc1ccc2cc(-c3nc(C(C)C)n4ccnc(N)c34)ccc2c1 [Compound 10, 1-(6-ethoxynaphthalen-2-yl)-3-isopropylimidazo[1,5-a]pyrazin-8-amine] | 328 nM | 380 nM | 29 µM (≈ 10 µg/mL) |  |  |  |  | IC50 (TgCDPK1; read-out: IC50 (μM) TgCDPK1): 0.078 µM; AUC [5]: 112 µM·h; Cmax [5]: 26000 nM; Tmax [5]: 2.5 h; IC50 (CpCDPK1; [7]): 0.0336 µM |
| CC(C)Oc1ccc2cc(-c3nn(C(C)C)c4ncnc(N)c34)ccc2c1 [Compound 11, 3-(6-isopropoxynaphthalen-2-yl)-1-isopropyl-1H-pyrazolo[3,4-d]pyrimidin-4-amine] | 549 nM | 373 nM |  | <30% at 10 μM | <30% at 10 μM | <30% at 10 μM | <30% at 10 μM | IC50 (HckKD): 0.541 µM |
| CCCOc1ccc2cc(-c3nn(C(C)C)c4ncnc(N)c34)ccc2c1 [Compound 12, 1-isopropyl-3-(6-propoxynaphthalen-2-yl)-1H-pyrazolo[3,4-d]pyrimidin-4-amine] | 526 nM | 659 nM |  | <30% at 10 μM | <30% at 10 μM | <30% at 10 μM | <30% at 10 μM | IC50 (HckKD): 0.244 µM |
| CC(C)Oc1ccc2cc(-c3nn(CC4CCNCC4)c4ncnc(N)c34)ccc2c1 [Compound 32, 3-(6-isopropoxynaphthalen-2-yl)-1-(piperidin-4-ylmethyl)-1H-pyrazolo[3,4-d]pyrimidin-4-amine] | 55.4 nM | 365 nM |  |  |  |  |  | IC50 (HckKD): > 10 µM |
| Nc1ncnc2c1c(-c1ccc3cc(OCc4ccccc4Cl)ccc3c1)nn2CC1CCNCC1 [Compound 37, 3-(6-(2-chlorobenzyloxy)naphthalen-2-yl)-1-(piperidin-4-ylmethyl)-1H-pyrazolo[3,4-d]pyrimidin-4-amine] | 71.6 nM | 95.8 nM |  |  |  |  |  | Observed HFF Toxicity (T at concentration) (human fibroblast): T at 100 μM |
| CC(C)(C)c1nc(-c2ccc3ccccc3c2)c2c(N)nccn12 [Compound 84] | 55.1 nM | 61.3 nM | 26 µM (≈ 8.23 µg/mL) |  | <30% at 10 μM | <30% at 10 μM |  | Cell Toxicity HL60, % at 30 μM [2]: 50% at 30 μM; Cell Toxicity CRL8155, % at 30 μM [3]: 48% at 30 μM |
| Nc1ncnc2c1c(-c1ccc3cc(O)ccc3c1)nn2CC1CCNCC1 [Compound 119] | 7.3 nM | 76.9 nM | 50 µM (≈ 18.7 µg/mL) |  | <30% at 10 μM; | <30% at 10 μM |  | Cell Toxicity HL60, % at 30 μM [2]: <30% at 30 μM; Cell Toxicity CRL8155, % at 30 μM [3]: <30% at 30 μM |
| Cn1ncc2cc(-c3nn(CC4CCNCC4)c4ncnc(N)c34)ccc21 [Compound 121] | 146 nM | 702 nM | 43 µM (≈ 15.6 µg/mL) |  | <30% at 10 μM | <30% at 10 μM |  | AUC [5]: 0.445 µM·h; Cmax [5]: 190 nM; Tmax [5]: 1.5 h |
| CC(C)COc1ccc2cc(-c3nn(CC4CCN(C)CC4)c4ncnc(N)c34)ccc2c1 [Compound 124] | 101 nM | 119 nM | 41 µM (≈ 18.2 µg/mL) |  |  |  |  | AUC [5]: 6.65 µM·h; Cmax [5]: 1840 nM; Tmax [5]: 3 h |
| Nc1ncnc2c1c(-c1ccc3ccccc3c1)nn2CC1CCNCC1 [Compound 147, 3-(naphthalen-2-yl)-1-(piperidin-4-ylmethyl)-1H-pyrazolo[3,4-d]pyrimidin-4-amine] | 17.2 nM | 66.8 nM | 79 µM (≈ 28.3 µg/mL) |  | 33% at 10 μM |  |  | Cell Toxicity HL60, % at 30 μM [2]: 60% at 30 μM;; Cell Toxicity CRL8155, % at 30 μM [3]: <30% at 30 μM |
